System: LNCaP cells
Experiment: Cellular uptake and distribution (surface-bound, internalized) in LNCaP cells
Type: cell-based
Settings: 1 h, 37°C
Description: The lipophilicity of [^61Cu]Cu-DOTAGA-PSMA-I&T and [^61Cu]Cu-NODAGA-PSMA-I&T was assessed by determining the distribution coefficient in a 1:1 mixture of 1-octanol–to–phosphate-buffered saline at pH 7.4, in comparison with all reference radiotracers. Inhibitory concentration of 50% (IC50) was assessed by competition binding on lymph node carcinoma of the prostate (LNCaP) using ((S)-1-carboxy-5-(4-(-^125I-iodo-benzamido)pentyl)carbamoyl)-L-glutamic acid as the reference radioligand. Cellular uptake and distribution were assessed in LNCaP cells at 5, 15, 30, 60, and 120 min after exposure to the radioligand at 37°C, either alone or in the presence of 10 µM 2-(phosphonomethyl)pentanedioic acid to distinguish between specific and nonspecific uptake.
FIGURE 1. In vitro assessment in LNCaP cells after 1 h at 37°C. (A) Competition binding activity curves of ^natCu-DOTAGA-PSMA-I&T, ^natCu-NODAGA-PSMA-I&T, and ^natGa-PSMA-11 on LNCaP cells after 1 h of incubation on ice, using ((S)-1-carboxy-5-(4-(-^125I-iodo-benzamido)pentyl)carbamoyl)-L-glutamic acid ([^125I-BA]KuE) at concentration of 0.2 nM as reference radioligand. (B) Cellular uptake (surface-bound + internalized). Cell surface–bound and internalized fractions are indicated. Results represent mean ± SD of specific (total − nonspecific) uptake from minimum of 2 separate experiments, each in triplicate.

With `O=C([O-])CN1CCN(CC(=O)[O-])CCN(C(CCC(=O)N[C@H](Cc2ccc(O)c(I)c2)C(=O)N[C@H](Cc2ccccc2)C(=O)N[C@H](CCCCNC(=O)CCCCCCC(=O)NCCCC[C@H](NC(=O)N[C@@H](CCC(=O)O)C(=O)O)C(=O)O)C(=O)O)C(=O)O)CC1.[61Cu+2]` (stereo partly drawn) [[^61Cu]Cu-NODAGA-PSMA-I&T, NODAGA-(l-y)fk(sub-KuE)] the “Cellular uptake (surface-bound + internalized)” value (specific uptake) was 22.4% ± 3.3%, the Internalized fraction (% of applied activity) was 11.7 ± 1.6% and the Surface-bound fraction (% of applied activity) was 10.8 ± 1.8%.

Source: article PMC11372264, “^61Cu-PSMA–Targeted PET for Prostate Cancer: From Radiotracer Development to First-in-Human Imaging” (Journal of Nuclear Medicine, 2024)
